Data reported in PubChem BioAssay AID256 (DTP/NCI, 2004).
“And” between values parts separate entries of the source, which are not always exact repeats. Equal values may be shown once. Toxic doses and inconclusive results are not listed.

System: CD2F1 mice, L1210 leukemia ip, survival T/C
Assay: NCI In Vivo Anticancer Drug Screen. Data for tumor model L1210 Leukemia (intraperitoneal) in CD2F1 (CDF1) mice
Conditions: higher = longer survival
How it was run: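 Activity against a transplanted murine tumor was judged by comparing the compound group with a vehicle group. The outcome in the treated animals was divided by that in the controls.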

[1] = endpoint: mean survival time, dose: 100.0 mg/kg/injection, schedule: Q01DX009 (ip), vehicle: saline sonified
[2] = endpoint: mean survival time, dose: 200.0 mg/kg/injection, schedule: Q01DX009 (ip), vehicle: saline sonified
[3] = endpoint: mean survival time, dose: 400.0 mg/kg/injection, schedule: Q01DX009 (ip), vehicle: saline sonified
[4] = endpoint: mean survival time, dose: 100.0 mg/kg/injection, schedule: Q04DX003 (ip), vehicle: saline with Tween-80
[5] = endpoint: mean survival time, dose: 200.0 mg/kg/injection, schedule: Q04DX003 (ip), vehicle: saline with Tween-80
[6] = endpoint: mean survival time, dose: 400.0 mg/kg/injection, schedule: Q04DX003 (ip), vehicle: saline with Tween-80
[7] = endpoint: mean survival time, dose: 50.0 mg/kg/injection, schedule: Q01DX009 (ip), vehicle: Klucel (hydroxypropylcellulose) (HPC)
[8] = endpoint: mean survival time, dose: 100.0 mg/kg/injection, schedule: Q01DX009 (ip), vehicle: Klucel (hydroxypropylcellulose) (HPC)
[9] = endpoint: mean survival time, dose: 200.0 mg/kg/injection, schedule: Q01DX009 (ip), vehicle: Klucel (hydroxypropylcellulose) (HPC)

CCCCCCCCCCSCC(N)C(=O)O (stereo not given)
T/C (endpoint: mean survival time, dose: 25.0 mg/kg/injection, schedule: Q01DX009 (ip), vehicle: other): 88 % of control | T/C (endpoint: mean survival time, dose: 50.0 mg/kg/injection, schedule: Q01DX009 (ip), vehicle: other): 88 % of control | T/C (endpoint: mean survival time, dose: 100.0 mg/kg/injection, schedule: Q01DX009 (ip), vehicle: other): 94 % of control | T/C (endpoint: mean survival time, dose: 200.0 mg/kg/injection, schedule: Q01DX009 (ip), vehicle: other): 94 % of control | T/C (endpoint: mean survival time, dose: 400.0 mg/kg/injection, schedule: Q01DX009 (ip), vehicle: other): 97 % of control

O=C(CNC(=O)Nc1cccc([N+](=O)[O-])c1)N/N=C/C=C/c1ccccc1
T/C (endpoint: mean survival time, dose: 50.0 mg/kg/injection, schedule: Q01DX009 (ip), vehicle: saline with Tween-80): 88 % of control | T/C (endpoint: mean survival time, dose: 200.0 mg/kg/injection, schedule: Q01DX009 (ip), vehicle: saline with Tween-80): 88 % of control

C/C(=N\NC(=O)c1ccccc1O)c1cccc(/C(C)=N/NC(=O)c2ccccc2O)n1
T/C (endpoint: median survival time, dose: 3.0 mg/kg/injection, schedule: Q01DX009 (ip), vehicle: saline): 101 % of control | T/C (endpoint: median survival time, dose: 6.0 mg/kg/injection, schedule: Q01DX009 (ip), vehicle: saline): 106 % of control | T/C (endpoint: median survival time, dose: 12.0 mg/kg/injection, schedule: Q01DX009 (ip), vehicle: saline): 101 % of control | T/C (endpoint: median survival time, dose: 25.0 mg/kg/injection, schedule: Q01DX009 (ip), vehicle: saline): 93 % of control

CCOC(=O)C(C#N)C(=N)C#N (stereo not given)
T/C (endpoint: mean survival time, dose: 100.0 mg/kg/injection, schedule: Q04DX002 (ip), vehicle: saline with Tween-80): 93 % of control | T/C (endpoint: mean survival time, dose: 200.0 mg/kg/injection, schedule: Q04DX002 (ip), vehicle: saline with Tween-80): 89 % of control | T/C (endpoint: mean survival time, dose: 400.0 mg/kg/injection, schedule: Q04DX002 (ip), vehicle: saline with Tween-80): 110 % of control

CN1CC(NC(=O)N(CCCl)N=O)CC2c3cccc4c3c(cn4N=O)CC21 (stereo not given)
T/C (endpoint: mean survival time, dose: 12.5 mg/kg/injection, schedule: Q01DX001 (ip), vehicle: other): 105 % of control | T/C (endpoint: mean survival time, dose: 25.0 mg/kg/injection, schedule: Q01DX001 (ip), vehicle: other): 117 % of control | T/C (endpoint: mean survival time, dose: 50.0 mg/kg/injection, schedule: Q01DX001 (ip), vehicle: other): 121 % of control | T/C (endpoint: mean survival time, dose: 200.0 mg/kg/injection, schedule: Q01DX001 (ip), vehicle: other): 164 % of control | T/C (endpoint: mean survival time, dose: 400.0 mg/kg/injection, schedule: Q01DX001 (ip), vehicle: other): 289 % of control

N#CCSc1ncnc2nc[nH]c12
T/C (endpoint: mean survival time, dose: 15.0 mg/kg/injection, schedule: Q01DX009 (ip), vehicle: saline): 95 % of control and 107 % of control | T/C (endpoint: mean survival time, dose: 30.0 mg/kg/injection, schedule: Q01DX009 (ip), vehicle: saline): 110 % of control and 112 % of control | T/C (endpoint: mean survival time, dose: 60.0 mg/kg/injection, schedule: Q01DX009 (ip), vehicle: saline): 110 % of control | T/C (endpoint: median survival time, dose: 30.0 mg/kg/injection, schedule: Q01DX009 (ip), vehicle: saline): 100 % of control | T/C (endpoint: median survival time, dose: 60.0 mg/kg/injection, schedule: Q01DX009 (ip), vehicle: saline): 122 % of control

CSc1ccc(NC(=O)Nc2nccs2)cc1
T/C [1]: 103 % of control | T/C [2]: 106 % of control | T/C [3]: 100 % of control

CCO/N=C(\C)CSC1=NCCN1
T/C (endpoint: mean survival time, dose: 75.0 mg/kg/injection, schedule: Q04DX003 (ip), vehicle: saline): 102 % of control | T/C (endpoint: mean survival time, dose: 150.0 mg/kg/injection, schedule: Q04DX003 (ip), vehicle: saline): 100 % of control

OC1CCCCC1O (stereo not given)
T/C [4]: 101 % of control | T/C [5]: 100 % of control | T/C [6]: 103 % of control

Nc1ccc(Nc2ccc([N+](=O)[O-])cc2[N+](=O)[O-])cc1
T/C (endpoint: mean survival time, dose: 100.0 mg/kg/injection, schedule: Q01DX001 (ip), vehicle: saline with Tween-80): 89 % of control | T/C (endpoint: mean survival time, dose: 200.0 mg/kg/injection, schedule: Q01DX001 (ip), vehicle: saline with Tween-80): 96 % of control | T/C (endpoint: mean survival time, dose: 400.0 mg/kg/injection, schedule: Q01DX001 (ip), vehicle: saline with Tween-80): 96 % of control

[CH3][Sn]1([CH3])[O]C2C(CO)OC(n3cnc4c(N)ncnc43)C2[O]1 (stereo not given)
T/C (endpoint: mean survival time, dose: 12.5 mg/kg/injection, schedule: Q01DX005 (ip), vehicle: other): 98 % of control | T/C (endpoint: mean survival time, dose: 25.0 mg/kg/injection, schedule: Q01DX005 (ip), vehicle: other): 92 % of control | T/C (endpoint: mean survival time, dose: 50.0 mg/kg/injection, schedule: Q01DX005 (ip), vehicle: other): 97 % of control

[Cl-].[NH-]CCN(CC[NH-])CCN.[O-][Cl+3]([O-])([O-])O.[O-][Cl+3]([O-])([O-])O.[Pt+2]
T/C (endpoint: mean survival time, dose: 12.5 mg/kg/injection, schedule: Q04DX003 (ip), vehicle: saline with Tween-80): 97 % of control

N/C(=N\O)c1ncnc2c1ncn2C1OC(CO)C(O)C1O (stereo not given)
T/C (endpoint: median survival time, dose: 6.25 mg/kg/injection, schedule: Q01DX005 (ip), vehicle: distilled water + Tween-80): 107 % of control | T/C (endpoint: median survival time, dose: 12.5 mg/kg/injection, schedule: Q01DX005 (ip), vehicle: distilled water + Tween-80): 115 % of control | T/C (endpoint: median survival time, dose: 25.0 mg/kg/injection, schedule: Q01DX005 (ip), vehicle: distilled water + Tween-80): 108 % of control | T/C (endpoint: median survival time, dose: 50.0 mg/kg/injection, schedule: Q01DX005 (ip), vehicle: distilled water + Tween-80): 111 % of control | T/C (endpoint: median survival time, dose: 100.0 mg/kg/injection, schedule: Q01DX005 (ip), vehicle: distilled water + Tween-80): 111 % of control

CC1OC(=O)c2ccccc2S1=O (stereo not given)
T/C [1]: 98 % of control | T/C [4]: 98 % of control | T/C [2]: 97 % of control | T/C [5]: 100 % of control | T/C [3]: 97 % of control | T/C [6]: 104 % of control

ClC(Cl)c1nc2ccccc2[nH]1
T/C (endpoint: mean survival time, dose: 6.25 mg/kg/injection, schedule: Q01DX001 (ip), vehicle: Klucel (hydroxypropylcellulose) (HPC)): 89 % of control | T/C (endpoint: mean survival time, dose: 12.5 mg/kg/injection, schedule: Q01DX001 (ip), vehicle: Klucel (hydroxypropylcellulose) (HPC)): 96 % of control | T/C (endpoint: mean survival time, dose: 25.0 mg/kg/injection, schedule: Q01DX001 (ip), vehicle: Klucel (hydroxypropylcellulose) (HPC)): 89 % of control

CC1(C)CC(C)(OC(=O)c2ccccc2)N=N1 (stereo not given)
T/C (endpoint: mean survival time, dose: 25.0 mg/kg/injection, schedule: Q01DX009 (ip), vehicle: Klucel (hydroxypropylcellulose) (HPC)): 97 % of control | T/C [7]: 94 % of control | T/C [8]: 101 % of control | T/C [9]: 100 % of control | T/C (endpoint: mean survival time, dose: 400.0 mg/kg/injection, schedule: Q01DX009 (ip), vehicle: Klucel (hydroxypropylcellulose) (HPC)): 101 % of control

COc1ccc(NC(=O)Nc2ccc(F)cc2)cc1
T/C [4]: 101 % of control | T/C [5]: 96 % of control | T/C [6]: 102 % of control

O=C1CN=C(c2ccccn2)c2cc(Cl)ccc2N1
T/C (endpoint: mean survival time, dose: 267.0 mg/kg/injection, schedule: Q01DX009 (ip), vehicle: saline with Tween-80): 92 % of control | T/C (endpoint: mean survival time, dose: 400.0 mg/kg/injection, schedule: Q01DX009 (ip), vehicle: saline with Tween-80): 92 % of control

CN=C(NC)c1ccc(NC(=O)/C=C\c2ccc(/C=C/C(=O)Nc3ccc(C(=NC)NC)cc3)cc2)cc1
T/C (endpoint: median survival time, dose: 1.5 mg/kg/injection, schedule: Q01DX009 (ip), vehicle: Klucel (hydroxypropylcellulose) (HPC)): 112 % of control | T/C (endpoint: median survival time, dose: 3.0 mg/kg/injection, schedule: Q01DX009 (ip), vehicle: Klucel (hydroxypropylcellulose) (HPC)): 124 % of control | T/C (endpoint: median survival time, dose: 3.12 mg/kg/injection, schedule: Q01DX009 (ip), vehicle: Klucel (hydroxypropylcellulose) (HPC)): 151 % of control | T/C (endpoint: median survival time, dose: 6.0 mg/kg/injection, schedule: Q01DX009 (ip), vehicle: Klucel (hydroxypropylcellulose) (HPC)): 181 % of control | T/C (endpoint: median survival time, dose: 6.25 mg/kg/injection, schedule: Q01DX009 (ip), vehicle: Klucel (hydroxypropylcellulose) (HPC)): 186 % of control | T/C (endpoint: median survival time, dose: 12.0 mg/kg/injection, schedule: Q01DX009 (ip), vehicle: Klucel (hydroxypropylcellulose) (HPC)): 124 % of control | T/C (endpoint: median survival time, dose: 12.5 mg/kg/injection, schedule: Q01DX009 (ip), vehicle: Klucel (hydroxypropylcellulose) (HPC)): 124 % of control

CC(C)c1nc(CCl)c(CCl)n1Cc1ccccc1
T/C [7]: 97 % of control | T/C [8]: 94 % of control | T/C [9]: 90 % of control

C[n+]1ccc2c(Br)cccc2c1
T/C (endpoint: mean survival time, dose: 75.0 mg/kg/injection, schedule: Q01DX001 (ip), vehicle: saline): 101 % of control

C=CC[N+]12CC=C3COC(=O)C(C)(O)C(C)(O)C(C)C(=O)OC(CC1)C32 (stereo not given)
T/C (endpoint: mean survival time, dose: 100.0 mg/kg/injection, schedule: Q04DX003 (ip), vehicle: Klucel (hydroxypropylcellulose) (HPC)): 101 % of control | T/C (endpoint: mean survival time, dose: 200.0 mg/kg/injection, schedule: Q04DX003 (ip), vehicle: Klucel (hydroxypropylcellulose) (HPC)): 90 % of control | T/C (endpoint: mean survival time, dose: 400.0 mg/kg/injection, schedule: Q04DX003 (ip), vehicle: Klucel (hydroxypropylcellulose) (HPC)): 93 % of control

CC1=C/C(=N\Nc2ccccc2)C(C(O)(C(F)(F)Cl)C(F)(F)Cl)C(C)(C)C1 (stereo not given)
T/C [4]: 96 % of control | T/C [5]: 94 % of control | T/C [6]: 93 % of control
